Data reported in publication PMC5218480 (PLoS ONE, 2017).

Tested on: MV-4-11 cells
Assay: Gene expression microarray analysis (Affymetrix PrimeView) and GSEA
Assay type: cell-based, human
Parameters: RFU PODN (11730768_x_at) / Fold change /veh PODN (11730768_x_at) / RFU LINC00158 (11744669_a_at) / Fold change /veh LINC00158 (11744669_a_at) / RFU DUSP10 (11751237_a_at) / Fold change /veh DUSP10 (11751237_a_at) / RFU ID3 (11757404_x_at) / Fold change /veh ID3 (11757404_x_at) / RFU PLEKHG5 (11737974_s_at) / Fold change /veh PLEKHG5 (11737974_s_at) / RFU LRRC4B (11730491_at) / Fold change /veh LRRC4B (11730491_at) / RFU GIMAP4 (11747438_a_at) / Fold change /veh GIMAP4 (11747438_a_at) / RFU KRT8 (11758183_x_at) / Fold change /veh KRT8 (11758183_x_at) / RFU CNN1 (11734310_a_at) / Fold change /veh CNN1 (11734310_a_at) / RFU VPS37D (11726825_at) / Fold change /veh VPS37D (11726825_at) / RFU C10orf10 (11716522_x_at) / Fold change /veh C10orf10 (11716522_x_at) / RFU KIR2DL2 /// KIR2DL4 /// KIR2DL5A /// KIR2DL5B /// KIR2DS1 /// KIR2DS2 /// KIR2DS3 /// KIR2DS4 /// KIR3DL3 /// KIR3DL3 /// KIR3DS1 (11738374_at) / Fold change /veh KIR2DL2 /// KIR2DL4 /// KIR2DL5A /// KIR2DL5B /// KIR2DS1 /// KIR2DS2 /// KIR2DS3 /// KIR2DS4 /// KIR3DL3 /// KIR3DL3 /// KIR3DS1 (11738374_at) / RFU C1QL1 (11718748_at) / Fold change /veh C1QL1 (11718748_at) / RFU TMPRSS4 (11747572_a_at) / Fold change /veh TMPRSS4 (11747572_a_at) / RFU HAMP (11756126_x_at) / Fold change /veh HAMP (11756126_x_at) / RFU RNFT2 (11725882_a_at) / Fold change /veh RNFT2 (11725882_a_at) / RFU NR4A2 (11747474_a_at) / Fold change /veh NR4A2 (11747474_a_at) / RFU ABCC12 (11746883_a_at) / Fold change /veh ABCC12 (11746883_a_at) / RFU TMEM136 (11760407_x_at) / Fold change /veh TMEM136 (11760407_x_at) / RFU CLDN22 /// WWC2 (11732394_at) / Fold change /veh CLDN22 /// WWC2 (11732394_at) / RFU HLA-DPB1 (11760878_x_at) / Fold change /veh HLA-DPB1 (11760878_x_at) / RFU SPINT1 (11716480_a_at) / Fold change /veh SPINT1 (11716480_a_at) / RFU GAP43 (11754022_s_at) / Fold change /veh GAP43 (11754022_s_at) / RFU A4GNT (11735810_at) / Fold change /veh A4GNT (11735810_at) / RFU PRB3 (11715151_x_at) / Fold change /veh PRB3 (11715151_x_at) / RFU TUBB4B (11761932_at) / Fold change /veh TUBB4B (11761932_at) / RFU CAPN14 (11732068_a_at) / Fold change /veh CAPN14 (11732068_a_at) / RFU TMCC2 (11721928_a_at) / Fold change /veh TMCC2 (11721928_a_at) / RFU IRGQ (11745062_a_at) / Fold change /veh IRGQ (11745062_a_at) / RFU FAM174B (11720279_a_at) / Fold change /veh FAM174B (11720279_a_at) / RFU TMPRSS4 (11748680_a_at) / Fold change /veh TMPRSS4 (11748680_a_at) / RFU FAM212B (11763350_a_at) / Fold change /veh FAM212B (11763350_a_at) / RFU PLEKHG5 (11743358_a_at) / Fold change /veh PLEKHG5 (11743358_a_at) / RFU ZSCAN30 (11745921_a_at) / Fold change /veh ZSCAN30 (11745921_a_at) / RFU CMKLR1 (11741424_a_at) / Fold change /veh CMKLR1 (11741424_a_at) / RFU LOC101060620 /// MAPK8IP1 (11723275_at) / Fold change /veh LOC101060620 /// MAPK8IP1 (11723275_at) / RFU SPTSSB (11747773_x_at) / Fold change /veh SPTSSB (11747773_x_at) / RFU PRSS12 (11739890_at) / Fold change /veh PRSS12 (11739890_at) / RFU BIN1 (11741810_x_at) / Fold change /veh BIN1 (11741810_x_at) / RFU WNT11 (11732464_a_at) / Fold change /veh WNT11 (11732464_a_at) / RFU C10orf10 (11716521_a_at) / Fold change /veh C10orf10 (11716521_a_at) / RFU C5orf56 (11738089_at) / Fold change /veh C5orf56 (11738089_at) / RFU CYB561 (11721691_x_at) / Fold change /veh CYB561 (11721691_x_at) / RFU ANKRD19P (11752326_a_at) / Fold change /veh ANKRD19P (11752326_a_at) / RFU OR2T12 /// OR2T33 /// OR2T8 (11738714_s_at) / Fold change /veh OR2T12 /// OR2T33 /// OR2T8 (11738714_s_at) / RFU VCAN (11748164_a_at) / Fold change /veh VCAN (11748164_a_at) / RFU JSRP1 (11732532_at) / Fold change /veh JSRP1 (11732532_at) / RFU KRTAP10-11 (11738290_x_at) / Fold change /veh KRTAP10-11 (11738290_x_at) / RFU MYO3A (11730013_a_at) / Fold change /veh MYO3A (11730013_a_at) / RFU EBF3 (11725865_a_at) / Fold change /veh EBF3 (11725865_a_at) / RFU CAMK2N1 (11719241_x_at) / Fold change /veh CAMK2N1 (11719241_x_at) / RFU C5orf56 (11738088_a_at) / Fold change /veh C5orf56 (11738088_a_at) / RFU OLFML3 (11715873_a_at) / Fold change /veh OLFML3 (11715873_a_at) / RFU LOC100653217 /// NTM (11731650_a_at) / Fold change /veh LOC100653217 /// NTM (11731650_a_at) / RFU MAPK11 (11762145_a_at) / Fold change /veh MAPK11 (11762145_a_at) / RFU FIZ1 (11724087_x_at) / Fold change /veh FIZ1 (11724087_x_at) / RFU OASL (11726364_x_at) / Fold change /veh OASL (11726364_x_at) / RFU SOX15 (11748057_x_at) / Fold change /veh SOX15 (11748057_x_at) / RFU CD79A (11719716_a_at) / Fold change /veh CD79A (11719716_a_at) / RFU HIST1H1D (11736915_at) / Fold change /veh HIST1H1D (11736915_at) / RFU CASKIN2 (11723855_a_at) / Fold change /veh CASKIN2 (11723855_a_at) / RFU LOC730098 (11760151_x_at) / Fold change /veh LOC730098 (11760151_x_at) / RFU OR4N2 (11742367_at) / Fold change /veh OR4N2 (11742367_at) / RFU PRRT2 (11749266_a_at) / Fold change /veh PRRT2 (11749266_a_at) / RFU SNX32 (11753110_a_at) / Fold change /veh SNX32 (11753110_a_at) / RFU CDHR5 (11726645_a_at) / Fold change /veh CDHR5 (11726645_a_at) / RFU RCAN1 (11760418_a_at) / Fold change /veh RCAN1 (11760418_a_at) / RFU FAM167A (11723789_a_at) / Fold change /veh FAM167A (11723789_a_at) / RFU FAM26E (11764081_at) / Fold change /veh FAM26E (11764081_at) / RFU ISYNA1 (11749810_s_at) / Fold change /veh ISYNA1 (11749810_s_at) / RFU ACY1 (11761880_at) / Fold change /veh ACY1 (11761880_at) / RFU 11764098_at / Fold change /veh 11764098_at / RFU SAMD14 (11745864_x_at) / Fold change /veh SAMD14 (11745864_x_at) / RFU NPB (11741838_a_at) / Fold change /veh NPB (11741838_a_at) / RFU TMPRSS6 (11731388_a_at) / Fold change /veh TMPRSS6 (11731388_a_at) / RFU KRTAP10-2 (11738614_at) / Fold change /veh KRTAP10-2 (11738614_at) / RFU ARHGAP8 /// PRR5-ARHGAP8 (11727945_x_at) / Fold change /veh ARHGAP8 /// PRR5-ARHGAP8 (11727945_x_at) / RFU KRTAP5-7 /// NADSYN1 (11734609_at) / Fold change /veh KRTAP5-7 /// NADSYN1 (11734609_at) / RFU RASL12 (11751679_a_at) / Fold change /veh RASL12 (11751679_a_at) / RFU CDKN2B (11736163_a_at) / Fold change /veh CDKN2B (11736163_a_at) / RFU PRF1 (11729649_at) / Fold change /veh PRF1 (11729649_at) / RFU, ZNF638 /// ZNF638-IT1 / Fold change vs veh, ZNF638 /// ZNF638-IT1 / RFU, PANK3 / Fold change vs veh, PANK3 / RFU, SH3YL1 / Fold change vs veh, SH3YL1 / RFU, ZEB2 / Fold change vs veh, ZEB2 / RFU, NRIP1 / Fold change vs veh, NRIP1 / RFU, PTTG1IP / Fold change vs veh, PTTG1IP / RFU, CAPN2 / Fold change vs veh, CAPN2 / RFU, MED14 / Fold change vs veh, MED14 / RFU, SNORA58 / Fold change vs veh, SNORA58 / RFU, C1orf63 / Fold change vs veh, C1orf63 / RFU, LRRFIP1 / Fold change vs veh, LRRFIP1 / RFU, NDUFAF7 / Fold change vs veh, NDUFAF7 / RFU, SLC12A2 / Fold change vs veh, SLC12A2 / RFU, IBTK / Fold change vs veh, IBTK / RFU, ESF1 / Fold change vs veh, ESF1 / Fold change vs veh, TMEM50B / RFU, TAOK1 / Fold change vs veh, TAOK1 / RFU, ACBD3 / Fold change vs veh, ACBD3 / RFU, TMA16 / Fold change vs veh, TMA16 / RFU, RWDD3 / Fold change vs veh, RWDD3 / RFU, BCAT1 / Fold change vs veh, BCAT1 / RFU, EDEM3 / Fold change vs veh, EDEM3 / RFU, TMEM33 / Fold change vs veh, TMEM33 / RFU, WDR75 / Fold change vs veh, WDR75 / RFU, AHCTF1 / Fold change vs veh, AHCTF1 / RFU, TFRC / Fold change vs veh, TFRC / RFU, ZDHHC17 / Fold change vs veh, ZDHHC17 / RFU, NOM1 / Fold change vs veh, NOM1 / RFU, ARL8B / Fold change vs veh, ARL8B / RFU, ZBTB11 / Fold change vs veh, ZBTB11 / RFU, TAMM41 / Fold change vs veh, TAMM41 / RFU, KIAA1704 /// LOC100996395 / Fold change vs veh, KIAA1704 /// LOC100996395 / RFU, ING1 / Fold change vs veh, ING1 / RFU, TRMT61B / Fold change vs veh, TRMT61B / RFU, FUBP3 / Fold change vs veh, FUBP3 / RFU, TP53 / Fold change vs veh, TP53 / RFU, TNKS2 / Fold change vs veh, TNKS2 / RFU, ZFP14 / Fold change vs veh, ZFP14 / RFU, ACTR2 / Fold change vs veh, ACTR2 / RFU, PPP3R1 / Fold change vs veh, PPP3R1 / RFU, PIK3R1 / Fold change vs veh, PIK3R1 / RFU, HNRNPA1 / Fold change vs veh, HNRNPA1 / RFU, RNF170 / Fold change vs veh, RNF170 / RFU, ZNF28 / Fold change vs veh, ZNF28 / RFU, RNGTT / Fold change vs veh, RNGTT / RFU, OGT / Fold change vs veh, OGT / RFU, BRD1 / Fold change vs veh, BRD1 / RFU, MARS / Fold change vs veh, MARS / RFU, ZNF655 / Fold change vs veh, ZNF655 / RFU, FAHD1 / Fold change vs veh, FAHD1 / RFU, BDP1 / Fold change vs veh, BDP1 / RFU, LRRCC1 / Fold change vs veh, LRRCC1 / RFU, ARID1A / Fold change vs veh, ARID1A / RFU, ZNF146 / Fold change vs veh, ZNF146 / RFU, ZNF330 / Fold change vs veh, ZNF330 / RFU, GPN3 / Fold change vs veh, GPN3 / RFU, C9orf123 / Fold change vs veh, C9orf123 / RFU, N4BP2L2 / Fold change vs veh, N4BP2L2 / RFU, ARFIP1 / Fold change vs veh, ARFIP1 / RFU, FAM179B / Fold change vs veh, FAM179B / RFU, BCL10 / Fold change vs veh, BCL10 / RFU, UHRF1BP1L / Fold change vs veh, UHRF1BP1L / RFU, BET1 / Fold change vs veh, BET1 / RFU, CNOT2 / Fold change vs veh, CNOT2 / RFU, ZNF268 / Fold change vs veh, ZNF268 / Fold change vs veh, ZNF507 / RFU, DGCR2 / Fold change vs veh, DGCR2 / RFU, WDSUB1 / Fold change vs veh, WDSUB1 / Fold change vs veh, HSP90B1 /// MIR3652 / RFU, ADSS / Fold change vs veh, ADSS / RFU, GK / Fold change vs veh, GK / RFU, ZNF148 / Fold change vs veh, ZNF148 / RFU, TAF9 / Fold change vs veh, TAF9 / RFU, SLC1A5 / Fold change vs veh, SLC1A5 / RFU, SLMO2 / Fold change vs veh, SLMO2 / RFU, ABCC4 / Fold change vs veh, ABCC4 / RFU, LOC101060439 /// RAP1B / Fold change vs veh, LOC101060439 /// RAP1B / RFU, RFX7 / Fold change vs veh, RFX7 / RFU, GTPBP10 / Fold change vs veh, GTPBP10 / RFU, CNEP1R1 / Fold change vs veh, CNEP1R1 / RFU, BIVM-ERCC5 /// ERCC5 / Fold change vs veh, BIVM-ERCC5 /// ERCC5 / RFU, ILF3 / Fold change vs veh, ILF3 / RFU 11762660_at / Fold change /veh 11762660_at / RFU VCAN (11757783_s_at) / Fold change /veh VCAN (11757783_s_at) / RFU DDX43 (11728927_at) / Fold change /veh DDX43 (11728927_at) / RFU KRT8 (11758188_x_at) / Fold change /veh KRT8 (11758188_x_at) / RFU NKD1 (11759106_at) / Fold change /veh NKD1 (11759106_at) / RFU SRD5A1 (11742802_a_at) / Fold change /veh SRD5A1 (11742802_a_at) / RFU TPSAB1 /// TPSB2 (11721975_s_at) / Fold change /veh TPSAB1 /// TPSB2 (11721975_s_at) / RFU GSTM3 (11746129_a_at) / Fold change /veh GSTM3 (11746129_a_at) / RFU IL23R (11737362_x_at) / Fold change /veh IL23R (11737362_x_at) / RFU TMEM51 (11727254_a_at) / Fold change /veh TMEM51 (11727254_a_at) / RFU PIWIL2 (11732686_x_at) / Fold change /veh PIWIL2 (11732686_x_at) / RFU ORM1 (11744905_x_at) / Fold change /veh ORM1 (11744905_x_at) / RFU CCDC152 (11743942_at) / Fold change /veh CCDC152 (11743942_at) / RFU ECM1 (11717891_a_at) / Fold change /veh ECM1 (11717891_a_at) / RFU IL23R (11748794_a_at) / Fold change /veh IL23R (11748794_a_at) / RFU TNFAIP8L3 (11732012_x_at) / Fold change /veh TNFAIP8L3 (11732012_x_at) / RFU MBOAT4 (11741988_at) / Fold change /veh MBOAT4 (11741988_at) / RFU 11764193_at / Fold change /veh 11764193_at / RFU TMEM53 (11763286_at) / Fold change /veh TMEM53 (11763286_at) / RFU MAGEB2 (11727129_at) / Fold change /veh MAGEB2 (11727129_at) / RFU TMEM200A (11744735_a_at) / Fold change /veh TMEM200A (11744735_a_at) / RFU CCDC152 (11751479_a_at) / Fold change /veh CCDC152 (11751479_a_at) / RFU FAM211A (11726209_a_at) / Fold change /veh FAM211A (11726209_a_at) / RFU RGS16 (11746705_a_at) / Fold change /veh RGS16 (11746705_a_at) / RFU VCAN (11755009_s_at) / Fold change /veh VCAN (11755009_s_at) / RFU RHOB (11743442_s_at) / Fold change /veh RHOB (11743442_s_at) / RFU RGS16 (11720943_a_at) / Fold change /veh RGS16 (11720943_a_at) / RFU RGS16 (11720944_at) / Fold change /veh RGS16 (11720944_at) / RFU, VPS4B / Fold change vs veh, VPS4B / RFU, CREB1 / Fold change vs veh, CREB1 / RFU, DNAJC13 / Fold change vs veh, DNAJC13 / RFU, GNAQ / Fold change vs veh, GNAQ / RFU, CDK5R1 / Fold change vs veh, CDK5R1 / RFU, ZRANB3 / Fold change vs veh, ZRANB3 / RFU, CUL4A / Fold change vs veh, CUL4A / RFU, CCNY / Fold change vs veh, CCNY / RFU, UFL1 / Fold change vs veh, UFL1 / RFU, COG3 / Fold change vs veh, COG3 / RFU, DIAPH2 / Fold change vs veh, DIAPH2 / RFU, SKA2 / Fold change vs veh, SKA2 / RFU, AFF3 / Fold change vs veh, AFF3 / RFU, LMF1 / Fold change vs veh, LMF1 / RFU, IPO11 / Fold change vs veh, IPO11 / RFU, DFFB / Fold change vs veh, DFFB / RFU, FOXP1 / Fold change vs veh, FOXP1 / RFU, CARD8 / Fold change vs veh, CARD8 / RFU, STRN3 / Fold change vs veh, STRN3 / RFU, ADK / Fold change vs veh, ADK / RFU, RASSF2 / Fold change vs veh, RASSF2 / RFU, WIPF1 / Fold change vs veh, WIPF1 / RFU, LARP1B / Fold change vs veh, LARP1B / RFU, RASA1 / Fold change vs veh, RASA1 / RFU, RB1 / Fold change vs veh, RB1 / RFU, PPFIA1 / Fold change vs veh, PPFIA1 / RFU, MAT2A / Fold change vs veh, MAT2A / RFU, CCT5 / Fold change vs veh, CCT5 / RFU, WDR92 / Fold change vs veh, WDR92 / RFU, CUX1 / Fold change vs veh, CUX1 / RFU, TTC7A / Fold change vs veh, TTC7A / RFU, TMEM135 / Fold change vs veh, TMEM135 / RFU, DEPTOR / Fold change vs veh, DEPTOR / RFU, CPM / Fold change vs veh, CPM / RFU, DNAJB6 / Fold change vs veh, DNAJB6 / RFU, CACNA2D3 / Fold change vs veh, CACNA2D3 / RFU, DTX4 / Fold change vs veh, DTX4 / RFU, TFCP2 / Fold change vs veh, TFCP2 / RFU, GMCL1 /// GMCL1P1 / Fold change vs veh, GMCL1 /// GMCL1P1 / RFU, AEBP2 / Fold change vs veh, AEBP2 / RFU, SNHG1 /// SNORD22 /// SNORD25 /// SNORD26 /// SNORD27 /// SNORD28 /// SNORD29 /// SNORD31 / Fold change vs veh, SNHG1 /// SNORD22 /// SNORD25 /// SNORD26 /// SNORD27 /// SNORD28 /// SNORD29 /// SNORD31 / Fold change (Aza/veh), C12orf56 (ProbeSet 11735607_a_at) / Fold change (ACY-1035/veh), C12orf56 (ProbeSet 11735607_a_at) / Fold change (Aza/veh), FGFR1OP (ProbeSet 11751329_s_at) / Fold change (ACY-1035/veh), FGFR1OP (ProbeSet 11751329_s_at) / Fold change (Aza/veh), VPS36 (ProbeSet 11739960_a_at) / Fold change (ACY-1035/veh), VPS36 (ProbeSet 11739960_a_at) / RFU SYPL1 (11715823_x_at) / Fold change /veh SYPL1 (11715823_x_at) / RFU IGFBP7 (11715501_s_at) / Fold change /veh IGFBP7 (11715501_s_at) / RFU REEP3 (11722064_at) / Fold change /veh REEP3 (11722064_at) / RFU IGLL1 (11728026_x_at) / Fold change /veh IGLL1 (11728026_x_at): dose or concentration left out as unconfirmed
Conditions: ProbeSet 11739106_a_at; LIST B

Compound: Nc1ccc(-c2cccs2)cc1NC(=O)c1ccc2c(c1)cc(C1CC1)n2CCN1CCOCC1 [ACY-1035]
- Fold change vs veh, TMEM33: 0.87
